Measured values published in paper PMC3252466 (Chirality, 2011).

Assays:
CYP2B6 = CYP2B6 (Homo sapiens, UniProt P20813); conditions: concentrations up to 10 μM; pooled HLMs, 100 μM bupropion; data not shown
human CYP2C9 = human CYP2C9 (Homo sapiens, UniProt P11712); conditions: read-out: IC50 CYP2C9; recombinant human CYP2C9 15 nM, 150 μM MFC, 45 min, 37°C; mean (95% confidence interval)
human CYP2C19 = human CYP2C19 (Homo sapiens, UniProt P33261); conditions: read-out: IC50 CYP2C19; recombinant human CYP2C19 7.5 nM, 25 μM CEC, 30 min, 37°C; mean (95% confidence interval)
Chain of human CYP2C19 (P33261 whole entry): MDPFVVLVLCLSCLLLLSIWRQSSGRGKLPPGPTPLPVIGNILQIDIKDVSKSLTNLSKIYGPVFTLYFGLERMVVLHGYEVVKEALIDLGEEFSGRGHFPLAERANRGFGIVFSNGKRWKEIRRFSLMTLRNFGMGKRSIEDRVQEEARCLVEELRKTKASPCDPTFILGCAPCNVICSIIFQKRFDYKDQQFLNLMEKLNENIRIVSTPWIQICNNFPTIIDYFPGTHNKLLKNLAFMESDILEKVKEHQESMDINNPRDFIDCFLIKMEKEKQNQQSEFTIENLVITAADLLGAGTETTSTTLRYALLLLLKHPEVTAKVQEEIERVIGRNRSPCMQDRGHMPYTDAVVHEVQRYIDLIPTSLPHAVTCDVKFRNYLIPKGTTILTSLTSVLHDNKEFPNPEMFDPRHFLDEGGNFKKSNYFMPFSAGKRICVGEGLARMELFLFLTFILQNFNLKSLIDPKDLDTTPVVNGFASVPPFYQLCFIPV

Chain of human CYP2C9 (P11712 whole entry): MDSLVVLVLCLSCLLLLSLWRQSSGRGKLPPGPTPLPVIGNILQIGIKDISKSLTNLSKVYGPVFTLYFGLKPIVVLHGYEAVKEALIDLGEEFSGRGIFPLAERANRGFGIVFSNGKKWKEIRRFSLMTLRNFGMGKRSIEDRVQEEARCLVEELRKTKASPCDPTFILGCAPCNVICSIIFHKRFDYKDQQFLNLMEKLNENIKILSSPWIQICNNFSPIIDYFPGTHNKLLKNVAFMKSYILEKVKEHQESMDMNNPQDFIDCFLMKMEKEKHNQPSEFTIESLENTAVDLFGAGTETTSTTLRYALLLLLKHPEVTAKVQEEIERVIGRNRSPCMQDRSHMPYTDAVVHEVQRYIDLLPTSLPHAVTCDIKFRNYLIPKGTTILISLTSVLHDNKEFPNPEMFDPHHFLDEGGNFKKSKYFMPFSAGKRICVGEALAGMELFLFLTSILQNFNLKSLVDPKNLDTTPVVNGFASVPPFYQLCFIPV
Chain of CYP2B6 (P20813 whole entry): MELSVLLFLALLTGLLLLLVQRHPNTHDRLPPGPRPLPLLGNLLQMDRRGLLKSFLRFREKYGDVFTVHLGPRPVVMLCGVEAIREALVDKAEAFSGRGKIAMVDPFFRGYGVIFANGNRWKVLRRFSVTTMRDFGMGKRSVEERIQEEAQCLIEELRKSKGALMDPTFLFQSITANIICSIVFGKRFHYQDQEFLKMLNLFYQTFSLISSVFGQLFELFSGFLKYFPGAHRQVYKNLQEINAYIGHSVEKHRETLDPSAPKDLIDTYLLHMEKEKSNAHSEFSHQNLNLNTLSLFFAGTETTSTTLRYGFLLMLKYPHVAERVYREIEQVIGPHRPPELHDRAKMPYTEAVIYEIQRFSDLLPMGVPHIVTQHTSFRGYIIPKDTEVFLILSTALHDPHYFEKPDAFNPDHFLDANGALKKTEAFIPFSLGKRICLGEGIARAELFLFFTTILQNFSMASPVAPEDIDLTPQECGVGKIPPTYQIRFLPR

Row | Compound | Inhibition of CYP2B6 (CYP2B6) | IC50 (human CYP2C9) | IC50 (human CYP2C19)
1 | naringenin [rac-naringenin] | No appreciable inhibition |  | 
2 | O=C1C[C@H](c2ccc(O)cc2)Oc2cc(O)cc(O)c21 [(R)-naringenin] |  | 1600 nM | 4900 nM
3 | O=C1C[C@@H](c2ccc(O)cc2)Oc2cc(O)cc(O)c21 [(S)-naringenin] |  | 3400 nM | 1200 nM
